Test results published in publication PMC12051620, “Molecular basis underlying the specificity of an antagonist AA92593 for mammalian melanopsins” (The Journal of Biological Chemistry, 2025).

Key:
[1] = dissolution in HBSS assay solution; type: physicochemical; settings: HBSS solution pH 7.4, 0.5% DMSO
Protocol: (§1) The transfected COS-1 cells were incubated at 37 °C, 5% CO2 for 2 days, and the medium was aspirated and exchanged with 50 μl of HBSS (145 mM NaCl, 10 mM D-glucose, 5 mM KCl, 1 mM MgCl2, 1.7 mM CaCl2, 1.5 mM NaHCO3, 10 mM Hepes, pH 7.4), containing 33.3, 20, 10, 2, 0.2, 0.02, 0.002, or 0 μM AA92593, 0.5% dimetyl sulfoxide (DMSO), and 4% (vol/vol) GloSensor cAMP reagent stock solution. Under our experimental conditions, >50 μM AA92593 was not fully dissolved in the HBSS solution, and we set maximal concentration of AA92593 (Glixx Laboratories) at 33.3 μM (final concentration of 16.7 μM, see below). Then, the cells were incubated at room temperature for 1 h, and luminescence changes were monitored. After incubation of the cells with AA92593, luminescence measurement was interrupted, the plate was ejected, and the cells were added with 50 μl of HBSS containing 0.2 μM 9-cis-retinal. […] Luminescence was measured using GM-2000 or GM-3510 microplate reader (Promega). Luminescence level of each well was measured every 30 s with integration time of 0.6 to 0.9 s. To illuminate opsins, luminescence measurement was interrupted, the plate was ejected, and the plate was illuminated by white light with CN-160 LED video light (light intensity, ∼9 mW/cm^2) (NEEWER). […] After illumination, luminescence measurement was resumed. […]

[2] = tested on: jumping spider rhodopsin-1 I189^ECL2W; assay: GsX GloSensor assay with Gsα/q11; type: cell-based; settings: 16.7 μM AA92593, COS-1 cells
Excerpt: (§2) We next tested the effect of AA92593 on jumping spider rhodopsin-1, a Gq-coupled visual opsin but not melanopsin (see Figs. 2, S2, and S3) ([41]). Similar to non-mammalian-type and invertebrate melanopsins, jumping spider rhodopsin-1 was not sensitive to AA92593 as assessed using the GsX GloSensor assay (Fig. 7L). […] The introduction of I189^ECL2W/Y207^5.42F impaired the light-dependent cAMP responses even in the absence of AA92593 (Fig. S11). Taken together, the non-melanopsin Gq-coupled opsin cannot be functionally converted to an AA92593-sensitive type by site-directed mutagenesis, in contrast to non-mammalian-type and invertebrate melanopsins.
(§3) For GloSensor assay, opsins, GloSensor assay sensor (coded by pGlo-22F), and NanoBiT-tagged G proteins were transiently expressed in COS-1 cells (kindly provided from Dr David Farrens, Oregon Health and Science University) using PEI as described previously ([24], [52]). […] For GFP-fluorescence microscopy, a 35-mm cell culture dish (IWAKI) was transfected with 2 μg melanopsin-GFP plasmid and 8 μg PEI in 400 μl Opti-mem and 1.2 ml D-MEM. […]
as §1, with “Under our experimental conditions, >50 μM AA92593 was not fully dissolved in the HBSS solution, and we set maximal concentration of AA92593 (Glixx Laboratories) at 33.3 μM (final concentration of 16.7 μM, see below).” left out, “s.” for “s. To illuminate opsins, luminescence measurement was interrupted, the plate was ejected, and the plate was illuminated by white light with CN-160 LED video light (light intensity, ∼9 mW/cm^2) (NEEWER).”, “resumed. The measured luminescence levels were normalized to the level at the starting point (time = 0 min).” for “resumed.”

[3] = tested on: jumping spider rhodopsin-1 M94^2.61F/T188^ECL2S/L269^6.52S; assay: GsX GloSensor assay with Gsα/q11; type: cell-based; settings: 16.7 μM AA92593, COS-1 cells
Excerpt: as §2, §3
as §1, with “Under our experimental conditions, >50 μM AA92593 was not fully dissolved in the HBSS solution, and we set maximal concentration of AA92593 (Glixx Laboratories) at 33.3 μM (final concentration of 16.7 μM, see below).” left out, “s.” for “s. To illuminate opsins, luminescence measurement was interrupted, the plate was ejected, and the plate was illuminated by white light with CN-160 LED video light (light intensity, ∼9 mW/cm^2) (NEEWER).”, “resumed. The measured luminescence levels were normalized to the level at the starting point (time = 0 min).” for “resumed.”

[4] = tested on: jumping spider rhodopsin-1 Y207^5.42F; assay: GsX GloSensor assay with Gsα/q11; type: cell-based; settings: 16.7 μM AA92593, COS-1 cells
Excerpt: as §2, §3
as §1, with “Under our experimental conditions, >50 μM AA92593 was not fully dissolved in the HBSS solution, and we set maximal concentration of AA92593 (Glixx Laboratories) at 33.3 μM (final concentration of 16.7 μM, see below).” left out, “s.” for “s. To illuminate opsins, luminescence measurement was interrupted, the plate was ejected, and the plate was illuminated by white light with CN-160 LED video light (light intensity, ∼9 mW/cm^2) (NEEWER).”, “resumed. The measured luminescence levels were normalized to the level at the starting point (time = 0 min).” for “resumed.”

## COc1ccc(S(=O)(=O)N2CCCCC2)cc1C [AA92593]
[1]
  concentration at which AA92593 was not fully dissolved: > 50 µM
[2]
  change in sensitivity to AA92593 vs WT: did not increase
[3]
  change in sensitivity to AA92593 vs WT: did not increase
[4]
  change in sensitivity to AA92593 vs WT: did not increase
